Results on twelve compounds are retold here after patent US5849690A, “Anti-aggregatory peptides” (SmithKline Beecham Corporation, priority 1992, dated 1998).

Entries after “also recorded” stand apart in the source; their conditions may differ. Residues, ends and D or L forms follow the SMILES beside them.

The target in data set [1] is T1, Platelet rich plasma, PRP (Canis lupus familiaris, UniProt A0A8I3N5G5+A0A8I3PMU9).
T1 sequence (A0A8I3N5G5 1-1047): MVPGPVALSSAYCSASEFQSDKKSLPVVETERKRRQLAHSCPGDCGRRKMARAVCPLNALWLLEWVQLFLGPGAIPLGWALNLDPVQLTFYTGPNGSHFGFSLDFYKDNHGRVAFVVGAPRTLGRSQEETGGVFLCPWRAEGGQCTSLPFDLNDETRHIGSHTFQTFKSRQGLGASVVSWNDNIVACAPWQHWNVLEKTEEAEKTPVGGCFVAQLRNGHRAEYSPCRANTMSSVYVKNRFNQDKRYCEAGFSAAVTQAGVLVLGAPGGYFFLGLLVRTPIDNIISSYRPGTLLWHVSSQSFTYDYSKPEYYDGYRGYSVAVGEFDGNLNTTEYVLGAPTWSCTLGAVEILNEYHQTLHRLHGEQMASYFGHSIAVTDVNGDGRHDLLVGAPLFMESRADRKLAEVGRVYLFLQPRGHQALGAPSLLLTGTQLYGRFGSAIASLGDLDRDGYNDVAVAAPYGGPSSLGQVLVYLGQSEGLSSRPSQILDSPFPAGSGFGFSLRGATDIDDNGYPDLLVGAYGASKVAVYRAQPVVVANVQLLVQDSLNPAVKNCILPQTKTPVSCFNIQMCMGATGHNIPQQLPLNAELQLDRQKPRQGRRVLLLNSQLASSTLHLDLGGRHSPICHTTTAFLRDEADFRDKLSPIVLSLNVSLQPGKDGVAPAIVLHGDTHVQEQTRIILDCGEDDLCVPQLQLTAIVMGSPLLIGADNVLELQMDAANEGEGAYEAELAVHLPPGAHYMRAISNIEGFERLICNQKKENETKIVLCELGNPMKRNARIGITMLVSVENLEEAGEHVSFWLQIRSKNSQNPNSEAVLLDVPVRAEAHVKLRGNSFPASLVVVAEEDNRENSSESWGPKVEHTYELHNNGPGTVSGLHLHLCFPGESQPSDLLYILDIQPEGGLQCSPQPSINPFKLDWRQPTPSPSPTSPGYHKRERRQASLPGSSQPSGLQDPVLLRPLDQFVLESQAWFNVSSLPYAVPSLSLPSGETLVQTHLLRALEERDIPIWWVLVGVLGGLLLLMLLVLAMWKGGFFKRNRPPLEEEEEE
T1 sequence (A0A8I3PMU9 1-919): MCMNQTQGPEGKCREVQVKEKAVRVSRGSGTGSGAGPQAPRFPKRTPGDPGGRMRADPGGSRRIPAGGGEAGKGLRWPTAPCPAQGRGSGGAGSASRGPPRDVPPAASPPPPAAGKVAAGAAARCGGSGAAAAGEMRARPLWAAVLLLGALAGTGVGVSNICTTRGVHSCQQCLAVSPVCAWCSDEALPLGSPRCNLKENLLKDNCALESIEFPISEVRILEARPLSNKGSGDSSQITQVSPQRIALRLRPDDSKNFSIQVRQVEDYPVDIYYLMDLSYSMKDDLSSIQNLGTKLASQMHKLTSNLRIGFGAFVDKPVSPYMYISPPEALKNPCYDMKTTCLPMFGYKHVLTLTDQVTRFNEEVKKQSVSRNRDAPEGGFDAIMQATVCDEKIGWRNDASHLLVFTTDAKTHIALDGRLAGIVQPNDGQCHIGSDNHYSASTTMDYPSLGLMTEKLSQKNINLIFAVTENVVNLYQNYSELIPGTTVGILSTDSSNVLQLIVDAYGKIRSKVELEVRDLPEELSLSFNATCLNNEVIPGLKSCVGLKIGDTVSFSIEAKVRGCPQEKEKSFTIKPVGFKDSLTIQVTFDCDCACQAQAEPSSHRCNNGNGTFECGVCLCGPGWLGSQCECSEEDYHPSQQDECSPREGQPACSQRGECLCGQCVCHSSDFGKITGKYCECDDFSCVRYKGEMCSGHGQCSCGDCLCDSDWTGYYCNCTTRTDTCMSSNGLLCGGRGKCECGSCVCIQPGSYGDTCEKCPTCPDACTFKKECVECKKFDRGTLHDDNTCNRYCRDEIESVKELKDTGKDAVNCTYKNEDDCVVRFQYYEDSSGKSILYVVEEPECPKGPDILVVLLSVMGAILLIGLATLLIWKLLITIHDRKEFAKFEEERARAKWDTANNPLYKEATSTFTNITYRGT
The data set can be described thus: Inhibition of platelet aggregation, PRP/ADP. Particulars: dog platelet rich plasma, 2 μM ADP, peptide added 3 min. prior to agonist; read-out: Antiaggregatory Activity IC50, μM PRP/ADP. It is filed as cell-based. The protocol:
(§1) Blood was collected (citrated to prevent coagulation) from, naive, adult mongrel dogs. Platelet rich plasma, PRP, was prepared by centrifugation at 150×g for 10 min. at room temperature. Washed platelets were prepared by centrifuging PRP at 800×g for 10 min. The cell pellet thus obtained was washed twice in Tyrode's buffer (pH 6.5) without Ca^2+ and resuspended in Tyrode's buffer (pH 7.4) containing 1.8 mM Ca^2+ at […]. Peptides were added 3 min. prior to the agonist in all assays of platelet aggregation. Final agonist concentrations were 0.1 unit/ml thrombin and 2 μM ADP (Sigma). Aggregation was monitored in a Chrono-Log Lumi-Aggregometer. Light transmittance 5 min. after addition of the agonist was used to calculate percent aggregation according to the formula % aggregation=[(90-CR).div.(90-10)]×100, where CR is the chart reading, 90 is the baseline, and 10 is the PRP blank reading. IC50 's were determined by plotting [% inhibition of aggregation] vs. [concentration of peptide]. Peptides were assayed at 200 μM and diluted sequentially by a factor of 2 to establish a suitable dose response curve.

The nature of data set [2]: Stability of the peptide to plasma proteases (3 hrs. incubation in PRP before agonist). The format is in vitro ADME, dog. Particulars: peptide incubated 3 hrs. in PRP prior to addition of agonist. The protocol:
as §1
To assess the stability of the peptide to plasma proteases, the peptides were incubated for 3 hrs. (rather than 3 min.) in the PRP prior to addition of the agonist.

For data set [3], the target named is T2, Washed platelets (Canis lupus familiaris, UniProt A0A8I3N5G5+A0A8I3PMU9).
T2 sequence (A0A8I3N5G5 1-1047): T1 sequence (A0A8I3N5G5 1-1047)
T2 sequence (A0A8I3PMU9 1-919): T1 sequence (A0A8I3PMU9 1-919)
The experiment in a line: Inhibition of platelet aggregation, WP/Thrombin. The format is cell-based. Particulars: dog washed platelets, 0.1 unit/ml thrombin, peptide added 3 min. prior to agonist; read-out: Antiaggregatory Activity IC50, μM WP/Thrombin. The protocol: as §1

In data set [4] the test system is preformed human clot. The experiment in a line: Human clot lysis assay (tPA induced fibrinolysis). It is filed as biochemical. On the procedure: The human clot lysis assay is used to assess the in vitro effect of anti-fibrotic peptide on tPA induced fibrinolysis. Outdated, citrated, human plasma from the American Red Cross is spun for 20 min. at 1300X g to remove remaining blood cells. A solution consisting of plasma, ^125 I-fibrinogen, calcium chloride and thrombin is added to 6 mm tissue culture plates and incubated 15 to 18 hrs. at 37° C. The next morning, each well is rinsed to release the clot. Clots are washed twice with Tris-buffered saline, containing heparin and albumin. Each clot is then added to 1.0 ml of the same plasma used to prepare the clot. tPA is added to tubes over a concentration range of 7 to 250 ng/ml (final concentration). Tubes are incubated at 37° C. with gentle rotation for 4 hrs. At the end of 4 hrs., a 25 μl aliquot is removed and counted to measure ^125 I released from the clot. All samples are run in triplicate.

Data set [5] relates to platelet aggregation/thrombus formation. The data set can be described thus: In vivo inhibition of thrombus formation, coronary thrombosis model in anesthetized dogs. Details: species or system dog. The protocol: Briefly, a small Lexan® cylinder is placed around a mechanically damaged left circumflex coronary artery to produce a fixed partial obstruction of 80-90%. Under these conditions, platelets adhere to the exposed subendothelial collagen and aggregate at the obstructed site. Aggregation is assessed as a gradual reduction in blood flow over 2-3 min. until the thrombus is mechanically dislodged from the lumen of the obstructed vessel and coronary blood flow is restored. This process is allowed to repeat itself every 2-3 min. through the control period of the experiment.

Take `CC(=O)N[C@H]1CSSC[C@@H](C(N)=O)NC(=O)[C@H](CO)NC(=O)[C@H](CC(=O)O)NC(=O)CNC(=O)[C@H](CCCNC(=N)N)N(C)C1=O` [Example 1, N^α -Ac-Cyclo(S,S) Cys-MeArg-Gly-Asp-Ser-Cys-NH2] (HELM PEPTIDE1{[ac].C.[meR].G.D.S.C.[am]}$PEPTIDE1,PEPTIDE1,2:R3-7:R3$$$V2.0): in data set [1], the IC50 came out at 1.1 µM. The “% Activity after 3 hr. in PRP” value in data set [2] is listed as 100%.

With `CC(=O)N(C)[C@@H](CCCNC(=N)N)C(=O)NCC(=O)N[C@@H](CC(=O)O)C(=O)N[C@@H](Cc1ccccc1)C(N)=O` [Example 35, N^α -Ac-MeArg-Gly-Asp-Phe-NH2] (HELM PEPTIDE1{[ac].[meR].G.D.F.[am]}$$$$V2.0), in data set [1], the IC50 turned out to be 10.8 µM. Moreover, the “% Activity after 3 hr. in PRP” value in data set [2] was 100%.

As for `CC(=O)N[C@H]1CSSC[C@@H](C(N)=O)NC(=O)[C@H](CO)NC(=O)[C@H](CC(=O)O)NC(=O)CNC(=O)[C@H](CCCN=C(N)N)NC1=O` [Example 3, N^α -Ac-Cyclo(S,S) Cys-Arg-Gly-Asp-Ser-Cys-NH2] (HELM PEPTIDE1{[ac].C.R.G.D.S.C.[am]}$PEPTIDE1,PEPTIDE1,2:R3-7:R3$$$V2.0), in data set [3], the IC50 was 54.3 µM.

With “tPA(MT2N3): tissue plasminogen activator (tPA), fibrinolytic agent used to induce clot lysis”, the “EC50 of tPA-induced clot lysis, control period” value in data set [4] (% clot lysis at 4 hours, tPA alone) was found to be 31.5 ± 9.9 µg/mL.

For `CC(=O)N[C@@H](CCCNC(=N)N)C(=O)NCC(=O)N[C@@H](CC(=O)O)C(=O)N[C@@H](CO)C(N)=O` [Example 27, N^α -Ac-Arg-Gly-Asp-Ser-NH2] (Ac-RGDS-NH2), the “inhibition of thrombus formation (mean coronary blood flow)” value in data set [5] (400 mM at 0.013 ml/min.) is reported as “partial inhibition with prolongation of time to complete blockage”; in data set [5] (400 mM at 0.026 ml/min. infusion, listed as Ac-RGDS-NH2), “moderate inhibition with spontaneous sloughing off of the thrombus; also recorded: moderate inhibition with spontaneous sloughing off of thrombi”; in data set [5] (400 mM at 0.052 ml/min. infusion rate), “complete inhibition of thrombus formation”. In addition, the “inhibition of thrombus formation (coronary blood flow)” value in data set [5] (coronary infusion 400 mM at 0.1 ml/min, listed as Ac-RGDS-NH2) is given as “complete inhibition of thrombus formation”. Also, the “effect upon tPA promoted human clot lysis in vitro” value in data set [4] (1 mM peptide, listed as Ac-RGDS-NH2) is given as “no interaction; also recorded: no effect”.

On to `CC(=O)N(C)[C@@H](CCCNC(=N)N)C(=O)NCC(=O)N[C@@H](CC(=O)O)C(=O)N[C@@H](CO)C(N)=O` [Example 26, N^α -Ac-N a-MeArg-Gly-Asp-Ser-NH2] (HELM PEPTIDE1{[ac].[meR].G.D.S.[am]}$$$$V2.0), for which the IC50 turned out to be 7.4 µM in data set [1] and 28.2 µM in data set [3]. In addition, in data set [2], the “% Activity after 3 hr. in PRP” value is 100%.

Consider `CC(=O)N[C@@H](CCCNC(=N)N)C(=O)NCC(=O)N[C@@H](CC(=O)O)C(=O)N[C@@H](Cc1ccc2ccccc2c1)C(N)=O` [Example 32, N^α -Ac-Arg-Gly-Asp-Nal-NH2] (HELM PEPTIDE1{[ac].R.G.D.[O=C([C@H](Cc1ccc2ccccc2c1)N[*:1])[*:2]].[am]}$$$$V2.0), for which the IC50 in data set [1] came to 40.5 µM. Moreover, the “% Activity after 3 hr. in PRP” value in data set [2] is recorded as 100%.

For the compound `CC(=O)N[C@H]1CSSC2(CCCCC2)C(C(N)=O)NC(=O)[C@H](CC(=O)O)NC(=O)CNC(=O)[C@H](CCCNC(=N)N)NC1=O` (stereo partly drawn) [Example 2, N^α -Ac-Cyclo(S,S) Cys-Arg-Gly-Asp-(D,L) APmp-NH2] (HELM PEPTIDE1{[ac].C.R.G.D.[O=C(C(N[*:1])C1(S[*:3])CCCCC1)[*:2]].[am]}$PEPTIDE1,PEPTIDE1,2:R3-6:R3$$$V2.0), the IC50 in data set [1] came out at 1.53 µM. Moreover, the “% Activity after 3 hr. in PRP” value in data set [2] was 100%.

Consider `CC(=O)N[C@@H](CCCN=C(N)N)C(=O)NCC(=O)N[C@@H](CC(=O)O)C(N)=O` [Example 29, N^α -Ac-Arg-Gly-Asp-NH2], for which the IC50 in data set [1] is 138 µM; in data set [3] it was 356 µM.

“N^α -Ac-Arg-Gly-Asp-Tyr-NH2 [Example 28]”: the IC50 was 102 µM in data set [1] and 137 µM in data set [3]. Moreover, in data set [2], the “% Activity after 3 hr. in PRP” value is given as 98%.

As to `CC(=O)N[C@@H](CCCN=C(N)N)C(=O)NCC(=O)N[C@@H](CC(=O)O)C(=O)N[C@@H](CO)C(N)=O` [Example 27, N^α -Ac-Arg-Gly-Asp-Ser-NH2] (Ac-RGDS-NH2), the “effect of infusion upon coronary arterial blood pressure” value in data set [5] (400 mM at 0.1 ml/min) is on record as “no effect”. Besides, in data set [2], the “% Activity after 3 hr. in PRP” value came out at 0%.

Regarding `CC(=O)N[C@@H](CCCN=C(N)N)C(=O)NCC(=O)N[C@@H](CC(=O)O)C(=O)NCCc1ccccc1` [Example 34, N^α -Ac-Arg-Gly-Asp-NH-CH -CH2 -C6 H5], the IC50 in data set [1] is 75.9 µM.
